Entries after “also recorded” stand apart in the source; their conditions may differ.
Legend:
[1] = target: T1, S. aureus FtsZ (SaFtsZ) (Staphylococcus aureus, UniProt P0A031); experiment: Fluorescence anisotropy binding of BOFP to FtsZ; details: 0.1 μM BOFP, 10 μM SaFtsZ, 37° C.
T1 sequence (P0A031 1-390): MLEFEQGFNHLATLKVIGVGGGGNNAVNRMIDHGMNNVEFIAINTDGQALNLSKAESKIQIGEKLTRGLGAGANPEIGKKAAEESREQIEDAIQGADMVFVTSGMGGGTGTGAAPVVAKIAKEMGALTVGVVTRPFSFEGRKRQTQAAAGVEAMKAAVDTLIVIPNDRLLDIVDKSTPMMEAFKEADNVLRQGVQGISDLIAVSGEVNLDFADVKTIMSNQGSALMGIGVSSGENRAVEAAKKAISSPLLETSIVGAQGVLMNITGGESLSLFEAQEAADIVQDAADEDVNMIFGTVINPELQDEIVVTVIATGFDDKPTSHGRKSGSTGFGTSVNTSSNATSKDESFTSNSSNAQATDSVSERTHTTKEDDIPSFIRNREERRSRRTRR

[2] = target: T2, FtsZ in E. faecalis ATCC 29212 cells (Enterococcus faecalis, UniProt O08439); experiment: Fluorescence microscopy FtsZ visualization in live cells; assay type: cell-based; details: 1 μg/mL (1.3 μM) BOFP, 5 minutes
T2 construct: endogenous in cells; host or cells: E. faecalis ATCC 29212
T2 sequence (O08439 whole entry): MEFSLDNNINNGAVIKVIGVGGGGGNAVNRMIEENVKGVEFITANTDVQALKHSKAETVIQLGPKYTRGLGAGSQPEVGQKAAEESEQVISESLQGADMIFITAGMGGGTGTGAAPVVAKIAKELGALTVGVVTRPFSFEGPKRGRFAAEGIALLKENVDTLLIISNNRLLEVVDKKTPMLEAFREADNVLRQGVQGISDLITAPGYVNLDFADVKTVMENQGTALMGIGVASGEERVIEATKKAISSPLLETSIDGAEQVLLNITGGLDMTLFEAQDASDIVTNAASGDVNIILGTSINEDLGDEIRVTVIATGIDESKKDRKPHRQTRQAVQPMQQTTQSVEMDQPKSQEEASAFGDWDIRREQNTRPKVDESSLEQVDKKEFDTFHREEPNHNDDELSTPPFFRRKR
Protocol: (§1) Fluorescence microscopy assay for visualizing FtsZ and monitoring cell division in live Gram-positive and Gram-negative bacterial cells using BOFP. All fluorescence microscopy experiments were conducted using an Olympus BX50 microscope equipped with an X-cite Exacte 200W mercury lamp, a 100× Olympus UPLSAPO oil immersion objective (1.40 aperture), and a Chroma ET-EGFP (FITC/Cy2) filter. Images were captured using a QImaging Retiga R3 charge-coupled device (CCD) camera and the Ocular-Version 2.0 software package (QImaging).
(§2) For visualizing FtsZ in Gram-positive bacteria using BOFP, the bacterial cells were grown to log-phase in media suitable for each individual pathogen. Specifically, S. aureus NRS705 was grown in tryptic soy broth (TSB), E. faecalis ATCC 29212 and E. faecium ATCC 19434 were grown in lactobacilli MRS broth, S. agalactiae ATCC 12386 and S. pneumoniae ATCC 49619 were grown in TH broth, and S. pyogenes ATCC 19615 was grown in CAMH broth supplemented with 3% (v/v) LHB. For each Gram-positive bacterial strain, a total of 1 mL of cell culture was centrifuged at 15,000×g for 1 minute and washed 2-3 times with 1 mL of PBS. After the final wash, the pelleted cells were resuspended in 500 μL of PBS containing 1 μg/mL of BOFP and incubated in the dark for 5 minutes at room temperature. The cells were then centrifuged at 15,000×g for 1 minute, washed twice with 1 mL of PBS, and subsequently resuspended in 200 μL of PBS. 8 μL of this final cell suspension was then spread on a 0.25 mm layer of 1.5% high-resolution agarose (Sigma) in PBS, which was mounted on a standard 75×25×1 mm microscope slide (Azer Scientific) using a 1.7×2.8×0.025 cm Gene Frame (ThermoFisher). A 24×40 mm cover slip (Azer Scientific) was then applied to the agarose pad to prepare the slide for microscopic visualization.

[3] = tested on: FtsZ in E. faecium ATCC 19434 cells; experiment: as above; assay type: cell-based; details: 1 μg/mL (1.3 μM) BOFP, 5 minutes
Protocol: as §1, §2

[4] = tested on: FtsZ in S. pneumoniae ATCC 49619 cells; experiment: as above; assay type: cell-based; details: 1 μg/mL (1.3 μM) BOFP, 5 minutes
Protocol: as §1, §2

[5] = tested on: FtsZ in S. pyogenes ATCC 19615 cells; experiment: as above; assay type: cell-based; details: 1 μg/mL (1.3 μM) BOFP, 5 minutes
Protocol: as §1, §2

[6] = target: T3, FtsZ in S. aureus NRS705 cells (Staphylococcus aureus, UniProt P0A031); experiment: as above; assay type: cell-based; details: 1 μg/mL (1.3 μM) BOFP, 5 minutes
T3 construct: endogenous in cells; host or cells: S. aureus NRS705
T3 sequence (P0A031 1-390): T1 sequence (P0A031 1-390)
Protocol: as §1, §2

[7] = tested on: FtsZ in S. agalactiae ATCC 12386 cells; experiment: as above; assay type: cell-based; details: 1 μg/mL (1.3 μM) BOFP, 5 minutes
Protocol: as §1, §2

[8] = target: T4, FtsZ in E. coli ATCC 25922 cells (Escherichia coli, UniProt P0A9A6); experiment: as above; assay type: cell-based; details: 1 μg/mL BOFP for 5 minutes, no pentamidine
T4 construct: endogenous in cells; host or cells: E. coli ATCC 25922
T4 sequence (P0A9A6 whole entry): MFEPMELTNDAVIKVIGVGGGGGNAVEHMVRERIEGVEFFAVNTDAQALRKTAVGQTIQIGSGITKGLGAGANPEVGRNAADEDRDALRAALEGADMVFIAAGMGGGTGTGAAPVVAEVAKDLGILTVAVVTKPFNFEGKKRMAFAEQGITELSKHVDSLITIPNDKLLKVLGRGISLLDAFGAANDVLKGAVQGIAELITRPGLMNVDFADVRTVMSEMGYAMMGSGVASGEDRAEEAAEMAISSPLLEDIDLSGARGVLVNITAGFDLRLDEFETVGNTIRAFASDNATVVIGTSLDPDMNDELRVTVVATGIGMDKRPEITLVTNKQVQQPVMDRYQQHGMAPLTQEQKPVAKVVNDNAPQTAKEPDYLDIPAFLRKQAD
Protocol: as §1
(§3) For visualizing FtsZ in Gram-negative bacteria using BOFP, E. coli ATCC 25922, K. pneumoniae ATCC 13883, P. aeruginosa ATCC 27853, and A. baumannii ATCC 19606 were grown to log-phase in CAMH broth. For each Gram-negative bacterial strain, a total of 1 mL of cell culture was centrifuged at 15,000×g for 1 minute and washed twice with 1 mL of Tris-buffered saline (TBS) composed of 50 mM Tris-HCl pH 7.6 and 150 mM NaCl. […] The resuspended cells were then incubated in the dark for 5 minutes at room temperature, centrifuged at 15,000×g for 1 minute, washed twice with 1 mL of TBS, and subsequently resuspended in 200 μL of TBS. This final cell suspension was then prepared for microscopy as described above for the Gram-positive bacterial strains.

[9] = target: T5, FtsZ in P. aeruginosa ATCC 27853 cells (Pseudomonas aeruginosa, UniProt P47204); experiment: as above; assay type: cell-based; details: 1 μg/mL BOFP for 5 minutes, no pentamidine
T5 construct: endogenous in cells; host or cells: P. aeruginosa ATCC 27853
T5 sequence (P47204 1-394): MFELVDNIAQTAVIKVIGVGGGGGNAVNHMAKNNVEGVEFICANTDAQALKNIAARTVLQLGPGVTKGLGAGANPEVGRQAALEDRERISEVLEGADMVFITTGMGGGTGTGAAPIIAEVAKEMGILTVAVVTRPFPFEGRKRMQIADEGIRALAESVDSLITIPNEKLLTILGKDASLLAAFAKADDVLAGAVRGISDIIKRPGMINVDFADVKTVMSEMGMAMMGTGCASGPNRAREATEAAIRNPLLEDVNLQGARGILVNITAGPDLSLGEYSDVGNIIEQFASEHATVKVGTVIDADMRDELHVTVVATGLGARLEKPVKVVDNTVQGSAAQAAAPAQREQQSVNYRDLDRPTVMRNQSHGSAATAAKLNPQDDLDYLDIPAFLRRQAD
Protocol: as §1, §3

[10] = tested on: FtsZ in K. pneumoniae ATCC 13883 cells; experiment: as above; assay type: cell-based
Protocol: as §1, §3

[11] = tested on: FtsZ in A. baumannii ATCC 19606 cells; experiment: as above; assay type: cell-based; details: 1 μg/mL BOFP for 5 minutes, no pentamidine
Protocol: as §1, §3

With CC1=CC(C)=[N+]2C1=Cc1ccc(CCC(=O)OCC(Oc3ccc(F)c(C(N)=O)c3F)c3nc(-c4ccc(C(F)(F)F)cc4)c(Br)o3)n1[B-]2(F)F (stereo not shown) [BOFP, 2-(5-bromo-4-(4-(trifluoromethyl)phenyl)-oxazol-2-yl)-2-(3-carbamoyl-2,4-difluorophenoxy)ethyl 3-(5,5-difluoro-7,9-dimethyl-5H-5λ^4,6λ^4-dipyrrolo[1,2-c:2′,1′-f][1,3,2]diazaborinin-3-yl)propanoate] the “effect of both GMPCPP and MgCl2 on the anisotropy of SaFtsZ-bound BOFP” value ([1]; GMPCPP 0.1 mM and MgCl2 10 mM) was “modest increase in the anisotropy”, the “effect of GMPCPP alone or MgCl2 alone on the anisotropy of SaFtsZ-bound BOFP” value ([1]; GMPCPP 0.1 mM or MgCl2 10 mM) was “neither GMPCPP alone (at 0.1 mM) nor MgCl2 alone (at 10 mM) has a significant effect; also recorded: independent of either GTP or magnesium” and the “FtsZ labeling (fluorescence staining) in live cells” value [2] was “bright bands of fluorescence staining were clearly visible at midcell”. The “FtsZ labeling (fluorescence staining) in live cells” value [3] was “bright bands of fluorescence staining were clearly visible at midcell”, the “FtsZ labeling (fluorescence staining) in live cells” value [4] was “bright bands of fluorescence staining were clearly visible at midcell” and the “FtsZ labeling (fluorescence staining) in live cells” value [5] was “bright bands of fluorescence staining were clearly visible at midcell”. For the same molecule, the “FtsZ labeling (fluorescence staining) in live cells” value [6] was “bright bands of fluorescence staining were clearly visible at midcell”, the “FtsZ labeling (fluorescence staining) in live cells” value [7] was “bright bands of fluorescence staining were clearly visible at midcell” and the “FtsZ labeling in live cells without pentamidine” value [8] was “little or no FtsZ labeling”. For the same molecule, the “FtsZ labeling in live cells without pentamidine” value [9] was “little or no FtsZ labeling”, the “FtsZ labeling in live cells without pentamidine” value ([10]; 1 μg/mL BOFP for 5 minutes, no pentamidine) was “little or no FtsZ labeling” and the “FtsZ labeling (fluorescence staining) in live cells” value ([10]; 1 μg/mL BOFP with 3.5 mg/mL pentamidine isethionate, 5 minutes) was “bright fluorescence staining is visible both at midcell and along the cell periphery”. For the same molecule, the “FtsZ labeling in live cells without pentamidine” value [11] was “little or no FtsZ labeling”.

— patent US12061201B2, “Fluorescent probes for the visualization of FtsZ in gram-positive and gram-negative bacterial pathogens” (Rutgers, The State University of New Jersey, priority 2019, dated 2024)
